{"source": "ChEMBL document CHEMBL5247627", "about": "“1-Methyl-3-((4-(quinolin-4-yloxy)phenyl)amino)-1H-pyrazole-4-carboxamide derivatives as new rearranged during Transfection (RET) kinase inhibitors capable of suppressing resistant mutants in solvent-front regions” (Eur J Med Chem, 2022)", "key": {"[1]": {"tested_on": "BaF3", "assay": "Induction of apoptosis in mouse BaF3 cells harbouring CCDC6-RET G810R assessed as viable cells measured at 300 nM for 48 hrs by Annexin V-FITC staining based Guava easyCyte flow cytometric analysis (reference value: 89.5 %)", "type": "functional", "settings": "read-out: Activity"}, "[2]": {"tested_on": "BaF3", "assay": "Induction of apoptosis in mouse BaF3 cells harbouring CCDC6-RET G810R assessed as early apoptotic cells measured at 300 nM for 48 hrs by Annexin V-FITC staining based Guava easyCyte flow cytometric analysis (reference value: 6.46 %)", "type": "functional"}, "[3]": {"tested_on": "BaF3", "assay": "Antiproliferative activity against mouse BaF3 cells incubated for 74 to 76 hrs by cell counting kit 8 method", "type": "functional, cell-based"}, "[4]": {"tested_on": "BaF3", "assay": "Induction of apoptosis in mouse BaF3 cells harbouring CCDC6-RET G810R assessed as viable cells measured at 33.3 nM for 48 hrs by Annexin V-FITC staining based Guava easyCyte flow cytometric analysis (reference value: 89.5 %)", "type": "functional", "settings": "read-out: Activity"}, "[5]": {"tested_on": "BaF3", "assay": "Induction of apoptosis in mouse BaF3 cells harbouring CCDC6-RET G810C assessed as late apoptotic cells measured at 100 nM for 48 hrs by Annexin V-FITC staining based Guava easyCyte flow cytometric analysis (reference value: 2.65 %)", "type": "functional"}, "[6]": {"tested_on": "BaF3", "assay": "Antiproliferative activity against mouse BaF3 cells expressing rearranged during transfection kinase V804L-G810C incubated for 74 to 76 hrs by cell counting kit 8 method"}, "[7]": {"tested_on": "BaF3", "assay": "Induction of apoptosis in mouse BaF3 cells harbouring CCDC6-RET G810C assessed as early apoptotic cells measured at 33.3 nM for 48 hrs by Annexin V-FITC staining based Guava easyCyte flow cytometric analysis (reference value: 6.10 %)", "type": "functional"}, "[8]": {"tested_on": "BaF3", "assay": "Induction of apoptosis in mouse BaF3 cells harbouring CCDC6-RET G810C assessed as necrotic cells measured at 33.3 nM for 48 hrs by Annexin V-FITC staining based Guava easyCyte flow cytometric analysis (reference value: 0.35 %)", "type": "functional"}, "[9]": {"tested_on": "BaF3", "assay": "Induction of apoptosis in mouse BaF3 cells harbouring CCDC6-RET G810C assessed as late apoptotic cells measured at 33.3 nM for 48 hrs by Annexin V-FITC staining based Guava easyCyte flow cytometric analysis (reference value: 2.65 %)", "type": "functional"}, "[10]": {"tested_on": "BaF3", "settings": "Mus musculus, dose <= 100.0 nM, time 4.0 hrs"}, "[11]": {"tested_on": "BaF3", "assay": "Antitumor activity against mouse BaF3 cells harbouring CCDC6-RET G810C cells xenografted in CB17-SCID mouse assessed as reduction in tumor growth at 10 mg/kg ip qd administered for 12 days measured every 2 days relative to control", "type": "functional", "settings": "BaF3, 288 h, time 12 day, read-out: TGI"}, "[12]": {"tested_on": "BaF3", "assay": "Induction of apoptosis in mouse BaF3 cells harbouring CCDC6-RET G810C assessed as viable cells measured at 33.3 nM for 48 hrs by Annexin V-FITC staining based Guava easyCyte flow cytometric analysis (reference value: 90.90 %)", "type": "functional", "settings": "read-out: Activity"}, "[13]": {"tested_on": "BaF3", "assay": "Antitumor activity against mouse BaF3 cells harbouring CCDC6-RET G810C cells xenografted in CB17-SCID mouse assessed as reduction in tumor growth at 30 mg/kg ip qd administered for 12 days measured every 2 days relative to control", "type": "functional", "settings": "BaF3, 288 h, time 12 day, read-out: TGI"}, "[14]": {"tested_on": "BaF3", "assay": "Induction of apoptosis in mouse BaF3 cells harbouring CCDC6-RET G810R assessed as viable cells measured at 100 nM for 48 hrs by Annexin V-FITC staining based Guava easyCyte flow cytometric analysis (reference value: 89.5 %)", "type": "functional", "settings": "read-out: Activity"}, "[15]": {"tested_on": "BaF3", "assay": "Induction of apoptosis in mouse BaF3 cells harbouring CCDC6-RET G810C assessed as necrotic cells measured at 100 nM for 48 hrs by Annexin V-FITC staining based Guava easyCyte flow cytometric analysis (reference value: 0.35 %)", "type": "functional"}}}
{"smiles": "COc1cc2nccc(Oc3ccc(Nc4nn(C)cc4C(=O)NC45CC6CC(CC(C6)C4)C5)c(F)c3)c2cc1C(N)=O", "values": [{"measurement": "viability at 0.3 µM", "setting": "[1]", "value": 63.9, "unit": "%"}, {"measurement": "Activity", "setting": "[2]", "value": 32.67, "unit": "%"}, {"measurement": "IC50", "setting": "[3]", "value": "> 10000", "unit": "nM"}, {"measurement": "viability at 0.0333 µM", "setting": "[4]", "value": 91.1, "unit": "%"}, {"measurement": "Activity", "setting": "[5]", "value": 2.39, "unit": "%"}, {"measurement": "IC50", "setting": "[6]", "value": 54.2, "unit": "nM"}, {"measurement": "Activity", "setting": "[7]", "value": 7.39, "unit": "%"}, {"measurement": "Activity", "setting": "[8]", "value": 0.28, "unit": "%"}, {"measurement": "Activity", "setting": "[9]", "value": 1.5, "unit": "%"}, {"measurement": "inhibition", "setting": "[10]", "value": "Dose-Dependent Effect"}, {"measurement": "inhibition in vivo at 10 mg/kg", "setting": "[11]", "value": 17.1, "unit": "%"}, {"measurement": "viability at 0.0333 µM", "setting": "[12]", "value": 90.8, "unit": "%"}, {"measurement": "inhibition in vivo at 30 mg/kg", "setting": "[13]", "value": 66.9, "unit": "%"}, {"measurement": "viability at 0.1 µM", "setting": "[14]", "value": 88.6, "unit": "%"}, {"measurement": "Activity", "setting": "[15]", "value": 0.25, "unit": "%"}]}
